The values that follow come from patent publication US7772383B2, “Chemical PCR: Compositions for enhancing polynucleotide amplification reactions” (The Trustees of Princeton University, priority 2002, dated 2010).

For data set [1], the system named is bovine brain glycolipid transfer protein (GTP) cDNA (660 bp). Briefly: PCR amplification of GTP cDNA with diol additives, standard cycling. The data set is classed as biochemical. The settings on record: GTP; for Potency: 95° C. denaturing, 72° C. extension, normalized maximum densitometric volume of target band: 1,5-Pentanediol = 1; for Effective range: concentration interval over which densitometric volume of target band is at least 50% of maximum volume. The procedure: (§1) Amplification reactions were carried out under the following general conditions. Those skilled in the art will appreciate, however, that to the extent that the conditions (set forth in this application) required for specific experiments described in this example were inconsistent with the following general conditions, limited exceptions to the following general conditions were made The general conditions were as follows: 10 Mm Tris-HCl (Ph 8.8), 50 Mm KCl, 1.5 Mm MgCl2, 0.01% (w/v) gelatin, 0.2 Um primers, 0.06 ng/ul template, 0.2 Mm each Dntp, 0.04 U/ul Taq polymerase. The templates used were bovine brain N-WASP cDNA (1518 bp), a 996 bp segment of human myeloid leukocyte c-jun cDNA, a 511 bp segment of human prostate-specific membrane antigen (PSM) cDNA, and bovine brain glycolipid transfer protein (GTP) cDNA (660 bp). cDNA synthesis was carried out using the FIRST-STRAND® RT-PCR kit from Stratagene on the respective mRNAs purchased from Clontech. All amplification reactions for gene were carried out using a single master batch of cDNA. Taq polymerase and dNTPs were obtained from Stratagene. Primers were obtained from Genosys. Primer melting temperatures (Tms) were calculated using the Genosys oligo calculator program. The sequences of the primers were as follows.
(§2) Polymerase chain reactions for the N-WASP gene were conducted on a ROBOCYCLER® Gradient 40 thermal cycler from Stratagene using 100 ul solutions in 600 ul thin-walled tubes. For expediency, amplification of c-jun, PSM and GTP was carried out in a ROBOCYCLER® Gradient 96 thermal cycler from Stratagene using 50 ul solutions in 200 ul thin-walled tubes. Prior to Taq polymerase addition, a hotstart protocol was carried out that consisted of an initial cycle of 95° C. for 5 minutes (11) to ensure complete first-strand separation, followed by a cycle of 54° C. for 5 minutes. Amplifications were run for 30 cycles. […] Extension was done at 72° C. for periods depending on target length: 2 minutes for N-WASP, 1.5 minutes for c-jun and GTP, and 1 minute for PSM. Annealings were carried out either at fixed concentrations of additives using temperature gradients of 38-56° C. for N-WASP and 44-58° C. for the other targets, or at varying concentrations of additives using fixed temperatures of 41° C. for N-WASP, 50° C. for c-jun and PSM, and 54° C. for GTP.
(§3) Amplification products were analyzed by agarose gel electrophoresis on 0.8% agarose gels in which 20 ul reaction products were loaded with 4 ul loading buffer. Gels were stained with ethidium bromide, visualized on a UV transilluminator (Fisher), and documented by photography. Densitometric quantitation of amplification products was carried out using IMAGE SCANNER® and IMAGE MASTER® software from Amersham Pharmacia. Background correction was done using the software's rolling disc method.
Investigations into the PCR enhancing capabilities of diol cosolvents were carried out using GTP as the primary template. […] The standard protocol for annealing temperature and concentration gradient screening was again followed. […] These cosolvents were thus omitted from further studies. The optimal annealing temperatures for the remaining compounds were: ethylene glycol, 1,2-propanediol, 1,3-propanediol and cis-1,2-cyclopentanediol—58° C.; 1,2-butanediol—54° C.; 1,3-butanediol and 1,4-butanediol—[…]; 2,4-pentanediol, 1,5-pentanediol, 1,6-hexanediol and MPD—56° C.

Data set [2] has as its target T1, Taq polymerase (Thermus aquaticus, UniProt P19821).
T1 construct: purchased Stratagene
Briefly: Taq polymerase activity assays at low temperature in the presence of additives. The data set is classed as biochemical. The settings on record: 1.0M 1,5-pentanediol, 0.7M 1,6-hexanediol; for Activity of Taq polymerase: normalized to activity of control at 62° C.; for Activation: change in Taq activity versus control. As to the method: The measured polymerase activity, then, is in fact a function of two variables—temperature and additive concentration. The plot of measured activity versus temperature and additive concentration is a two-dimensional surface. While a truly comprehensive search for maximal polymerase activity would entail screening this entire surface, the number of experiments required to do so would of course be impractical. Therefore, polymerase activity was measured first as a function of temperature in the absence of additives and at one given, high additive concentration. The temperature that yielded the maximum activity of the polymerase at that concentration was then targeted for concentration gradient studies.
First, polymerase activity assays were carried out in the absence of additives and in the presence of 1.0M 1,5-pentanediol and 0.7M 1,6-hexanediol at temperatures between 46 and 62° C. Next, polymerase activity was studied at 53° C. in the presence of concentration gradients of 1,5-pentanediol, 2-pyrrolidone, sulfolane and tetramethylene sulfoxide. The concentrations tested were: 1,5-pentanediol: 1.0, 1.3, 1.5, 2.25, 3.0 and 3.5M; 2-pyrrolidone: 1.25, 1.5, 2.0 and 3.9M; sulfolane: 1.0, 1.5, 2.0 and 2.75M, tetramethylene sulfoxide: 1.0, 1.5, 2.0 and 3.0M.

Data set [3] has as its system 50% GC DNA. Nature of the data set: Predicted cosolvent-induced Tm depression of DNA. It is filed as physicochemical. The settings on record: 1.0M 1,5-pentanediol, 0.7M 1,6-hexanediol, linearity not verified. The procedure: The compounds utilized in the first phase (testing using 1.0M 1,5-pentanediol and 0.7M 1,6-hexanediol at temperatures between 46 and 62° C.) were chosen on the basis of the following rationale. The optimal additive for a low temperature PCR reaction is one that lowers the melting temperature of DNA as much as possible while minimally compromising polymerase activity. 1,5-Pentanediol and 1,6-hexanediol are both powerful DNA melting agents. In addition, it was found in the 62° C. activity studies that the rate of activity decline with concentration of 1,5-pentanediol was roughly equivalent to that of 1,2-butanediol, despite the fact that the former is a much stronger DNA denaturant. 1.0M 1,5-pentanediol and 0.7M 1,6-hexanediol are predicted to lower the Tm of a 50% GC DNA by approximately the same amount: 19° C.

Data set [4] deals with 511 bp segment of human prostate-specific membrane antigen (PSM) cDNA. Nature of the data set: PCR amplification of PSM cDNA with diol additives, standard cycling. The data set is classed as biochemical. The following applies: PSM. As to the method: as §1, §2, §3
(§4) With PSM, 1,2-propanediol, 1,2-butanediol, 1,3-butanediol, 1,4-butanediol and glycerol were tested; with c-jun, ethylene glycol and 1,3-propanediol were also tested in addition to these compounds. […] The following additive concentrations were tested using these annealing temperatures: 1,2-propanediol—0.5, 0.8, 1.1, 1.4, 1.7 and 2.0M; 1,2-butanediol—0.1, 0.3, 0.5, 0.6, 0.7 and 0.8M; 1,3-butanediol—0.1, 0.3, 0.5, 0.6, 0.9, 1.1, 1.2M; 1,4-butanediol—0.1 to 1.1M in 0.2M intervals; 1,5-pentanediol—0.1-0.6M in 0.1M intervals; glycerol—0.5 to 1.9M in 0.2M intervals, and 2.2M.

For data set [5], the system named is 996 bp segment of human myeloid leukocyte c-jun cDNA. Briefly: PCR amplification of c-jun cDNA with diol additives, standard cycling. The data set is classed as biochemical. The following applies: c-jun. As to the method: as §1, §2, §3, §4
The test system of data set [6] is GC-rich segment of crab satellite DNA. The settings on record: literature (Varadaraj and Skinner, 1994); cited from earlier work.
The conditions of data set [7]: when functional; general statement on prior use; cited from earlier work.

T1 sequence (P19821 whole entry): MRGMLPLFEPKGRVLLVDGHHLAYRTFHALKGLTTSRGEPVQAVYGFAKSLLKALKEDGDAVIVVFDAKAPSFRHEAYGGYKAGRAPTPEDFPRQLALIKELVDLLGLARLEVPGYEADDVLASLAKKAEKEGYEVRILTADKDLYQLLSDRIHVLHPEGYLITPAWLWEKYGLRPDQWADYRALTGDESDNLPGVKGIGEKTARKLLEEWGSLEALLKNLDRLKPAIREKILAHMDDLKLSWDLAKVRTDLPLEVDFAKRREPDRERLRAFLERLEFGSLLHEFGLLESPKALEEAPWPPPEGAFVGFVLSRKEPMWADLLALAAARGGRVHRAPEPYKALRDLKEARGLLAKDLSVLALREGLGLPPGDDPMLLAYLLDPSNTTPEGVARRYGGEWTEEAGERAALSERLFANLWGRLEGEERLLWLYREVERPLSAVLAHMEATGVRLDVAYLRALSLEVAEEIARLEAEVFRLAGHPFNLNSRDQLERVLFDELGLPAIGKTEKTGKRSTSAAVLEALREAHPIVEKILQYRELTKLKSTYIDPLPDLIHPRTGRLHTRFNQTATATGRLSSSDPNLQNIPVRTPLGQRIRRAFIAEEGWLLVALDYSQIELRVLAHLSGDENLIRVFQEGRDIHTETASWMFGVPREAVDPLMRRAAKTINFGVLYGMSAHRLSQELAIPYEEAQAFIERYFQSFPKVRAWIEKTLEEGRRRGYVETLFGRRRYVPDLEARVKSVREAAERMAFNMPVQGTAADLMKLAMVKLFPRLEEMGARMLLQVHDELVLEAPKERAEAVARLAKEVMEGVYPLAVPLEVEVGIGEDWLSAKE

As to `OCCCCCCO` [1,6-Hexanediol], the Potency in data set [1] came to 0.80. The “Effective range” value in data set [1] fell in the range of 0.13 to 0.29 M. The “Activity of Taq polymerase” value is recorded as 0.24 in data set [2] (47° C.); 0.36 in data set [2] (48° C.); 0.57 in data set [2] (49° C.); 0.60 in data set [2] (50° C.); 0.60 in data set [2] (51° C.); 0.64 in data set [2] (52° C.). For the same compound, the “Activity of Taq polymerase” value in data set [2] (53° C.) is 0.64; in data set [2] (54° C.) it was 0.60; in data set [2] (55° C.) it was 0.51. For the same compound, the Activation in data set [2] (47° C.) is −27%; in data set [2] (48° C.), −12%; in data set [2] (49° C.), “+16%”; in data set [2] (50° C.), “+20%”; in data set [2] (51° C.) it was “+13%”; in data set [2] (52° C.) it was “+25%”. The Activation result is reported as “+12%” in data set [2] (53° C.), −2% in data set [2] (54° C.) and −27% in data set [2] (55° C.). Moreover, the “lowering of the Tm of a 50% GC DNA” value in data set [3] was around 19 °C.
In the case of `OCC(O)CO` [Glycerol, reference compound], the Specificity in data set [4] (best specificity (densitometric volume of target as percent of total volume) over the effective range) is reported as 83%. Moreover, the “Effective range” value fell in the range of 1.10 to 1.63 M in data set [4] (concentration interval over which densitometric volume of target is at least 50% of maximum), 0.26 to 1.17 M in data set [1] and 0.50 to 1.25 M in data set [5] (concentration interval over which densitometric volume of target band is at least 50% of maximum volume). For the same compound, the Potency in data set [4] (normalized maximum densitometric volume of target band: 1,3-Butanediol = 1) is given as 0.22; in data set [1] it was 0.28; in data set [5] (normalized maximum densitometric volume of target band: 1,5-Pentanediol = 1), 0.13. In addition, in data set [6], the “enhancement of crab satellite DNA amplification relative to that provided by DMSO” value is “less than 25%”. Also, in data set [7], the “concentrations at which a positive effect on PCR is usually found” value is recorded as 5-15%.
